Km data for 1 compound are collected here from paper PMC3098721 (Molecular microbiology, 2010).

Molecules are shown by their SMILES.

The target of this experiment is PqsH (MBP-PqsH) (Pseudomonas aeruginosa, UniProt Q02N79). Put plainly: PQS fluorescence after ethyl acetate extraction, Michaelis-Menten fit. Type of experiment: biochemical. Conditions: NADH and O2 constant at saturating levels; pH 8.0.
PqsH (MBP-PqsH), sequence (Q02N79 2-382): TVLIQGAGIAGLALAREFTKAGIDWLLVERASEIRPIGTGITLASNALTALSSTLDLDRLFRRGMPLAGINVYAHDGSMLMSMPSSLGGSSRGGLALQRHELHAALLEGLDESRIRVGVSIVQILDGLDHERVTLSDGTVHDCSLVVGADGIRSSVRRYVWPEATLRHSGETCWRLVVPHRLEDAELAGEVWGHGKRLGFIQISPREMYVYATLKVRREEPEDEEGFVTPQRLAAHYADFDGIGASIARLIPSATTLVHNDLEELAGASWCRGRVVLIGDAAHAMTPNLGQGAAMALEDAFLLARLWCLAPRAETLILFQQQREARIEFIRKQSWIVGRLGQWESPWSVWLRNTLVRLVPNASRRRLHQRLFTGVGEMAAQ

In the case of `CCCc1cc(=O)c2ccccc2[nH]1` [C3-HHQ], the Km result is given as “almost entirely due to elevated Km values”.
